Reference: patent publication US20110091387A1, “METHODS AND COMPOSITIONS FOR REDUCING SKIN DAMAGE” (THE GENERAL HOSPITAL CORPORATION, priority 2007, published 2011)

test system: RhoE promoter; assay: RhoE promoter luc2 luciferase reporter screen for inducers of RhoE expression; assay type: cell-based; settings: Table 1; luminescence at 24 hours, two replicates per compound
Description: To isolate compounds that can activate RhoE pathway in keratinocytes and protect against UVB exposure, a robust and sensitive chemical genetics approach was developed for the identification of small molecules that induce RhoE expression. Briefly, a reporter construct was created that included the RhoE promoter operatively linked to the luc2 luciferase reporter gene (FIG. 1A). Stable cell lines were produced that expressed the reporter construct, and the cells were plated in 384 well plates at ˜10,000 cells per well. The library test compounds were added to the plated cells at two replicates per compound, and the cells were incubated with the compounds for 24 hours. Luminescence was measured at 24 hours using a plate reader. The data were analyzed using Spotfire.

Row | SMILES | Composite Z value (induction of RhoE expression)
1 | CCOC(=O)C1(O)Oc2cc(OC)cc(OC)c2C(=O)C1c1ccccc1 (stereo not drawn) [2-ethoxycarbonyl-2-hydroxy-5,7-dimethoxyisoflavanone] | 2.164
2 | O=c1c2ccccc2oc2ccc(O)cc12 [2-hydroxyxanthone] | 2.2158
3 | COc1ccc2oc3ccccc3c(=O)c2c1 [2-methoxyxanthone] | 3.8383
4 | Cc1ccc2cc3c(ccc4ccccc43)c3c2c1CC3 [3-methylcholanthrene] | 2.4062
5 | COc1ccc(-c2cc(=O)c3ccccc3o2)cc1OC [3′,4′-dimethoxyflavone] | 2.21
6 | O=C(/C=C/c1ccccc1)c1ccc(O)cc1 [4′-hydroxychalcone] | 2.8467
7 | COc1ccc(C(=O)/C=C/c2ccccc2)cc1 [4′-methoxychalcone] | 3.8036
8 | COc1ccccc1-c1cc(=O)c2c(OC)cccc2o1 [5,2′-dimethoxyflavone] | 3.0257
9 | COc1ccc(-c2cc(=O)c3c(OC)cc(OC)cc3o2)cc1 [5,7,4′-trimethoxyflavone] | 5.4102
10 | COc1cc(OC)c2c(=O)c(-c3ccccc3)coc2c1 [5,7-dimethoxyisoflavone] | 3.2977
11 | COc1ccc(-c2coc3cc(OC)ccc3c2=O)cc1 [7,4′-dimethoxyisoflavone] | 3.0721
12 | COc1ccccc1-c1cc(=O)c2cccc(OC)c2o1 [8,2′-dimethoxyflavone] | 2.7326
13 | COc1ccc(-c2cc(=O)c3c(O)cc(O)cc3o2)cc1 [Acacetin] | 3.2375
14 | CCCSc1ccc2nc(NC(=O)OC)[nH]c2c1 [Albendazole, reference compound] | 3.0534
15 | O=C1c2ccccc2-c2cccc3cccc1c23 [Benzanthrone] | 2.735
16 | CCCCOC(=O)c1ccc(O)cc1 [Butylparaben] | 2.6043
17 | CC(C)OC(=O)Nc1cccc(Cl)c1 [Chlorpropham] | 2.5656
18 | O=c1cc(-c2ccc(O)cc2)oc2cc(O[C@@H]3O[C@H](CO)[C@@H](O)[C@H](O)[C@H]3O)cc(O)c12 [Cosmosiin] | 4.8646
19 | COc1cc(OC)c2c(=O)c(-c3ccc4c(c3)OCO4)coc2c1 [Derrustone] | 2.3814
20 | O=C(CC(=O)c1ccccc1)c1ccccc1 [Dibenzoylmethane] | 3.651
21 | COc1ccc(-c2cc(=O)c3c(O)cc(O)cc3o2)cc1O [Diosmetin] | 4.5672
22 | O=C(Nc1ccccc1)Nc1ccccc1 [Diphenylurea] | 3.1382
23 | O=c1c2ccccc2[se]n1-c1ccccc1 [Ebselen] | 2.3104
24 | C[C@]12CC[C@H]3C(=CCc4cc(O)ccc43)[C@@H]1CCC2=O [Equilin, reference compound] | 2.3429
25 | C=C(C)c1cc2cc(C(C)=O)c(O)cc2o1 [Euparin] | 2.4662
26 | O=c1c(-c2ccc(O)cc2)coc2cc(O)cc(O)c12 [Genistein] | 2.5938

same assay, conditions: Table 2; luminescence at 24 hours, two replicates

Row | SMILES | Composite Z
27 | COc1ccc(-c2cc(=O)c3c(OC)cc(OC)cc3o2)cc1 [5,7,4′-trimethoxyflavone] | 5.4102
28 | O=c1cc(-c2ccc(O)cc2)oc2cc(O)cc(O)c12 [Apigenin] | 5.3515
29 | O=c1cc(-c2ccccc2)oc2cc(O)cc(O)c12 [Chrysin] | 5.4731

same assay, conditions: Table 2; luminescence at 24 hours, two replicates; listed as apigenin

Row | SMILES | Composite Z
30 | O=c1cc(-c2ccc(O)cc2)oc2cc(O)cc(O)c12 [Apigenin] | 5.8729
